The record followed here is patent US8349824B2, “Triazolopyridine compounds” (Hoffmann-La Roche Inc., priority 2010, dated 2013).

One series deals with T1, human PDE10A full length (Homo sapiens, UniProt Q9Y233).
T1 construct: purchased Enzo Life Science, Lausen, Switzerland SE-534
Description: PDE10A Scintillation Proximity Assay (SPA), human PDE10A full length assay. Conditions: 50 nM cGMP + 50 nM [3H]-cGMP, 20 minutes at room temperature, read-out: PDE10A inhibition IC50. The format is biochemical. The procedure, abridged:
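SPA format with full-length enzyme in 20 mM HEPES pH 7.5, 10 mM MgCl2, 0.05 mg/ml BSA, substrate 50 nM cGMP plus 50 nM [3H]-cGMP. Reaction started with substrate, run 20 min at room temperature, stopped with YSi-SPA beads in zinc sulphate. IC50 from scintillation counts over an inhibitor concentration range.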
Background: In a scintillation proximity assay essentially only radioactivity close to the scintillant gives light.

Usually IC50 stands for the concentration that gives 50% inhibition. The term melting point denotes the temperature, or range, at which the solid turns liquid.

Where only a bound is given, the exact number is not on record here.

T1 sequence (Q9Y233 1-779 isoform Q9Y233-1): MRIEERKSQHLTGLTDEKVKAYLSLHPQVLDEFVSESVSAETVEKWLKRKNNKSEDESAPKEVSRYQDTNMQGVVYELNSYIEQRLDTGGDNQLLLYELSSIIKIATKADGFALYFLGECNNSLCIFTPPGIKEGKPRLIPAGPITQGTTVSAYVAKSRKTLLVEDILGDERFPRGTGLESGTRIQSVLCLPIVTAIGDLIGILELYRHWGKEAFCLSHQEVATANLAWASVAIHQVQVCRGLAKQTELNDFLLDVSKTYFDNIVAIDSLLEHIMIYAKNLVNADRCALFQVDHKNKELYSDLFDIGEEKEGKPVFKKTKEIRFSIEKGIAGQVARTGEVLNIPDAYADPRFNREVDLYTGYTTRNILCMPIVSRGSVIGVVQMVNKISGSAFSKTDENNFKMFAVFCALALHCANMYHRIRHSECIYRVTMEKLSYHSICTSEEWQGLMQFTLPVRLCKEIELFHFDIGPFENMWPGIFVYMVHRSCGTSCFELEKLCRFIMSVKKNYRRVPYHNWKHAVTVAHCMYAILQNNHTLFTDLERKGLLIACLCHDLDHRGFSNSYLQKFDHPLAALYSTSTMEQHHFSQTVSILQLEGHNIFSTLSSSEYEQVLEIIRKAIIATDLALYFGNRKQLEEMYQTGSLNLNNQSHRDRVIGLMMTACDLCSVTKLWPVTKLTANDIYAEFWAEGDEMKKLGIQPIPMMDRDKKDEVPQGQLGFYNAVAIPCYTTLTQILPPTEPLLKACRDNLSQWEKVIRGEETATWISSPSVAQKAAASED

`CN(C)C(=O)c1cnn(C)c1C(=O)Nc1ccn2nc(-c3cccnc3F)nc2c1` [Example 109, N5-(2-(2-fluoropyridin-3-yl)-[1,2,4]triazolo[1,5-a]pyridin-7-yl)-N4,N4,1-trimethyl-1H-pyrazole-4,5-dicarboxamide] returned a melting point of 249 to 251 °C. In addition, at human PDE10A full length, the IC50 was 3.74 nM.

On to `Cn1ncc(C(=O)N2CCOCC2)c1C(=O)Nc1ccn2nc(-c3cccnc3F)nc2c1` [Example 111, 2-Methyl-4-(morpholine-4-carbonyl)-2H-pyrazole-3-carboxylic acid [2-(2-fluoro-pyridin-3-yl)-[1,2,4]triazolo[1,5-a]pyridin-7-yl]-amide], for which the melting point lay in the range of 267 to 269 °C. Also, the IC50 on human PDE10A full length worked out at 6.62 nM.

`Cn1ncc(C(=O)N2CC3(COC3)C2)c1C(=O)Nc1ccn2nc(N3CCOCC3)nc2c1` [Example 112, 2-Methyl-4-(2-oxa-6-aza-spiro[3.3]heptane-6-carbonyl)-2H-pyrazole-3-carboxylic acid (2-morpholin-4-yl-[1,2,4]triazolo[1,5-a]pyridin-7-yl)-amide] yielded a melting point greater than 300 °C. Also, the IC50 at human PDE10A full length was 57.3 nM.

As to `CN(CCF)c1nc2cc(NC(=O)c3c(C(=O)N4CC(F)C4)cnn3C)ccn2n1` [Example 114, 4-(3-Fluoro-azetidine-1-carbonyl)-2-methyl-2H-pyrazole-3-carboxylic acid {2-[(2-fluoro-ethyl)-methyl-amino]-[1,2,4]triazolo[1,5-a]pyridin-7-yl}-amide], the melting point is 233 to 236 °C. In addition, the half-inhibitory concentration (IC50) at human PDE10A full length turned out to be 5.66 nM.

With `Cn1ncc(C(=O)N2CCOCC2)c1C(=O)Nc1ccn2nc(-c3ccnc(F)c3)nc2c1` [Example 117, N-(2-(2-fluoropyridin-4-yl)-[1,2,4]triazolo[1,5-a]pyridin-7-yl)-1-methyl-4-(morpholine-4-carbonyl)-1H-pyrazole-5-carboxamide], the melting point was greater than 280 °C. Moreover, the IC50 at human PDE10A full length turned out to be 15 nM.

With `Cn1ncc(C(=O)N2CCC2)c1C(=O)Nc1ccn2nc(-c3ccnc(F)c3)nc2c1` [Example 118, 4-(Azetidine-1-carbonyl)-2-methyl-2H-pyrazole-3-carboxylic acid [2-(2-fluoro-pyridin-4-yl)-[1,2,4]triazolo[1,5-a]pyridin-7-yl]-amide], the melting point is greater than 280 °C. In addition, the IC50 at human PDE10A full length was 6.78 nM.

The compound `Cn1ncc(C(=O)N2CCC2)c1C(=O)Nc1ccn2nc(-c3cccc(F)n3)nc2c1` [Example 119, 4-(Azetidine-1-carbonyl)-2-methyl-2H-pyrazole-3-carboxylic acid [2-(6-fluoro-pyridin-2-yl)-[1,2,4]triazolo[1,5-a]pyridin-7-yl]-amide] yielded a melting point of 263.9 °C. In addition, the IC50 on human PDE10A full length came to 1.2 nM.

Consider `CN(C)C(=O)c1cnn(C)c1C(=O)Nc1ccn2nc(-c3cccc(F)n3)nc2c1` [Example 120, 2-Methyl-2H-pyrazole-3,4-dicarboxylic acid 4-dimethylamide 3-{[2-(6-fluoro-pyridin-2-yl)-[1,2,4]triazolo[1,5-a]pyridin-7-yl]-amide}], for which the melting point was 264.4 °C. For the same compound, the IC50 on human PDE10A full length is 1.32 nM.

`CN(C(=O)c1cnn(C)c1C(=O)Nc1ccn2nc(N3CCCC3)nc2c1)C1CC1` [Example 123, 2-Methyl-2H-pyrazole-3,4-dicarboxylic acid 4-(cyclopropyl-methyl-amide)3-[(2-pyrrolidin-1-yl-[1,2,4]triazolo[1,5-a]pyridin-7-yl)-amide]]: the melting point stood at 274.3 °C. On human PDE10A full length, the half-inhibitory concentration (IC50) was found to be 0.6 nM.

`CCN(C)C(=O)c1cnn(C)c1C(=O)Nc1ccn2nc(N3CCCC3)nc2c1` [Example 124, 2-Methyl-2H-pyrazole-3,4-dicarboxylic acid 4-(ethyl-methyl-amide)3-[(2-pyrrolidin-1-yl-[1,2,4]triazolo[1,5-a]pyridin-7-yl)-amide]] had a melting point of 323.1 °C. Besides, the 50% inhibitory concentration (IC50) at human PDE10A full length was 0.86 nM.
